Test: xn = mol fraction of the nth substance listed
Details: Liquid, Vibrating tube method

CCCCCCCCCC [decane] + CCCCCC
Details	mass density [kg/m3]
352.99 K, 19000 kPa, x2 = 0.7524	655.43
352.99 K, 20000 kPa, x2 = 0.0456	701.21
352.99 K, 20000 kPa, x2 = 0.7524	656.5
352.99 K, 21000 kPa, x2 = 0.0456	702.11
352.99 K, 21000 kPa, x2 = 0.7524	657.54
352.99 K, 22000 kPa, x2 = 0.0456	702.98
352.99 K, 22000 kPa, x2 = 0.7524	658.56
352.99 K, 23000 kPa, x2 = 0.0456	703.83
352.99 K, 23000 kPa, x2 = 0.7524	659.55
352.99 K, 24000 kPa, x2 = 0.0456	704.67
352.99 K, 24000 kPa, x2 = 0.7524	660.56
352.99 K, 25000 kPa, x2 = 0.0456	705.49
352.99 K, 25000 kPa, x2 = 0.7524	661.49
353 K, 1000 kPa, x2 = 0.2185	673.09
353 K, 2000 kPa, x2 = 0.2185	674.25
353 K, 3000 kPa, x2 = 0.2185	675.39
353 K, 4000 kPa, x2 = 0.2185	676.51
353 K, 5000 kPa, x2 = 0.2185	677.65
353 K, 6000 kPa, x2 = 0.2185	678.75
353 K, 7000 kPa, x2 = 0.2185	679.82
353 K, 8000 kPa, x2 = 0.2185	680.92
353 K, 9000 kPa, x2 = 0.2185	681.98
353 K, 10000 kPa, x2 = 0.2185	683.03
353 K, 11000 kPa, x2 = 0.2185	684.07
353 K, 12000 kPa, x2 = 0.2185	685.08
353 K, 13000 kPa, x2 = 0.2185	686.09
353 K, 14000 kPa, x2 = 0.2185	687.09
353 K, 15000 kPa, x2 = 0.2185	688.08
353 K, 16000 kPa, x2 = 0.2185	689.03
353 K, 17000 kPa, x2 = 0.2185	689.97
353 K, 18000 kPa, x2 = 0.2185	690.9
353 K, 19000 kPa, x2 = 0.2185	691.79
353 K, 20000 kPa, x2 = 0.2185	692.7
353 K, 21000 kPa, x2 = 0.2185	693.59
353 K, 22000 kPa, x2 = 0.2185	694.47
353 K, 23000 kPa, x2 = 0.2185	695.35
353 K, 24000 kPa, x2 = 0.2185	696.22
353 K, 25000 kPa, x2 = 0.2185	697.07
353.01 K, 1000 kPa, x2 = 0.4968	654.56
353.01 K, 2000 kPa, x2 = 0.4968	655.89
353.01 K, 3000 kPa, x2 = 0.4968	657.2
353.01 K, 4000 kPa, x2 = 0.4968	658.52
353.01 K, 5000 kPa, x2 = 0.4968	659.83
353.01 K, 6000 kPa, x2 = 0.4968	661.12
353.01 K, 7000 kPa, x2 = 0.4968	662.3
353.01 K, 8000 kPa, x2 = 0.4968	663.52
353.01 K, 9000 kPa, x2 = 0.4968	664.66
353.01 K, 10000 kPa, x2 = 0.4968	665.8
353.01 K, 11000 kPa, x2 = 0.4968	666.94
353.01 K, 12000 kPa, x2 = 0.4968	668.05
353.01 K, 13000 kPa, x2 = 0.4968	669.13
353.01 K, 14000 kPa, x2 = 0.4968	670.21
353.01 K, 15000 kPa, x2 = 0.4968	671.26
353.01 K, 16000 kPa, x2 = 0.4968	672.3
353.01 K, 17000 kPa, x2 = 0.4968	673.3
353.01 K, 18000 kPa, x2 = 0.4968	674.32
353.01 K, 19000 kPa, x2 = 0.4968	675.27
353.01 K, 20000 kPa, x2 = 0.4968	676.25
353.01 K, 21000 kPa, x2 = 0.4968	677.22
353.01 K, 22000 kPa, x2 = 0.4968	678.15
353.01 K, 23000 kPa, x2 = 0.4968	679.08
353.01 K, 24000 kPa, x2 = 0.4968	680
353.01 K, 25000 kPa, x2 = 0.4968	680.91
362.59 K, 1000 kPa, x2 = 0.8991	607.57
362.59 K, 2000 kPa, x2 = 0.8991	609.29
362.59 K, 3000 kPa, x2 = 0.8991	610.97
362.59 K, 4000 kPa, x2 = 0.8991	612.62
362.59 K, 5000 kPa, x2 = 0.8991	614.24
362.59 K, 6000 kPa, x2 = 0.8991	615.83
362.59 K, 7000 kPa, x2 = 0.8991	617.37
362.59 K, 8000 kPa, x2 = 0.8991	618.92
362.59 K, 9000 kPa, x2 = 0.8991	620.4
362.59 K, 10000 kPa, x2 = 0.8991	621.89
362.59 K, 11000 kPa, x2 = 0.8991	623.32
362.59 K, 12000 kPa, x2 = 0.8991	624.72
362.59 K, 13000 kPa, x2 = 0.8991	626.12
362.59 K, 14000 kPa, x2 = 0.8991	627.49
362.59 K, 15000 kPa, x2 = 0.8991	628.8
362.59 K, 16000 kPa, x2 = 0.8991	630.11
362.59 K, 17000 kPa, x2 = 0.8991	631.37
362.59 K, 18000 kPa, x2 = 0.8991	632.62
362.59 K, 19000 kPa, x2 = 0.8991	633.83
362.59 K, 20000 kPa, x2 = 0.8991	635.04
362.59 K, 21000 kPa, x2 = 0.8991	636.21
362.59 K, 22000 kPa, x2 = 0.8991	637.35
362.59 K, 23000 kPa, x2 = 0.8991	638.45
362.59 K, 24000 kPa, x2 = 0.8991	639.52
362.59 K, 25000 kPa, x2 = 0.8991	640.65
362.91 K, 1000 kPa, x2 = 0.0456	674.5
362.91 K, 2000 kPa, x2 = 0.0456	675.7
362.91 K, 3000 kPa, x2 = 0.0456	676.88
362.91 K, 4000 kPa, x2 = 0.0456	678.04
362.91 K, 5000 kPa, x2 = 0.0456	679.18
362.91 K, 6000 kPa, x2 = 0.0456	680.32

From the NIST ThermoML archive (doi:10.1021/je200721d)
